Assays:
[1] = biological target: Calcium/calmodulin-dependent protein kinase type II subunit delta (Homo sapiens) (UniProt Q13557); details: Compound concentration 1000.0 nM
[2] = biological target: Proto-oncogene tyrosine-protein kinase Src (Homo sapiens) (UniProt P12931); details: Compound concentration 1000.0 nM
[3] = biological target: Dual specificity protein kinase CLK3 (Homo sapiens) (UniProt P49761); details: Compound concentration 1000.0 nM
[4] = biological target: Serine/threonine-protein kinase VRK2 (Homo sapiens) (UniProt Q86Y07); details: Compound concentration 1000.0 nM
[5] = biological target: T1, Muscarinic acetylcholine receptor M5 (Homo sapiens, UniProt P08912); test: GPCRScan assay: inhibition of M5; design: radioligand conc. used [nm] 0.2 – 1.0, parental cells stable CHO
T1 sequence (P08912 whole entry): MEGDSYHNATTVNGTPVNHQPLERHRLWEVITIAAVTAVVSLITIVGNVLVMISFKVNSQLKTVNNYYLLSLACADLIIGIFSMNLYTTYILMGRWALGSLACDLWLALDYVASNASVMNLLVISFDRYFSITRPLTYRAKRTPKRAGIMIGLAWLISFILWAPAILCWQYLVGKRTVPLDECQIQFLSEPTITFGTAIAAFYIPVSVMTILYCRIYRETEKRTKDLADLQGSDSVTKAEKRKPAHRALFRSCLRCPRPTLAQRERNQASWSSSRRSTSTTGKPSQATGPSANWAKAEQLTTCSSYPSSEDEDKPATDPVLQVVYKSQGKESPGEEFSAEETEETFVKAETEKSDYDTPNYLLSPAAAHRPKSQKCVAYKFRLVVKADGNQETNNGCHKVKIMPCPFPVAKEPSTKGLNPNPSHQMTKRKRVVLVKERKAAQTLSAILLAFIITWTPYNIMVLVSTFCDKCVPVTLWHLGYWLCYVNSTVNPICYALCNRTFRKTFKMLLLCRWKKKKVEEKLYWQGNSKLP

[6] = biological target: Muscarinic acetylcholine receptor M4 (Homo sapiens) (UniProt P08173); details: Compound concentration 10.0 uM
[7] = biological target: Cyclin-dependent kinase-like 1 (Homo sapiens) (UniProt Q00532); details: Compound concentration 1000.0 nM
[8] = tested on: Phosphatidylinositol 4,5-bisphosphate 3-kinase catalytic subunit alpha isoform (Homo sapiens), P42336 [E545K]; details: Compound concentration 1000.0 nM
[9] = tested on: Tyrosine-protein kinase ABL1 (Homo sapiens), P00519 [Q252H]; details: Compound concentration 1000.0 nM
[10] = biological target: Mitogen-activated protein kinase kinase kinase 5 (Homo sapiens) (UniProt Q99683); details: Compound concentration 1000.0 nM
[11] = biological target: 5-hydroxytryptamine receptor 1B (Homo sapiens, UniProt P28222); details: Compound concentration 10.0 uM
D(1A) dopamine receptor = D(1A) dopamine receptor (Homo sapiens, UniProt P21728); details: Compound concentration 10.0 uM
[12] = biological target: BDNF/NT-3 growth factors receptor (Homo sapiens) (UniProt Q16620); details: Compound concentration 1000.0 nM
[13] = biological target: Ephrin type-A receptor 4 (Homo sapiens) (UniProt P54764); details: Compound concentration 1000.0 nM
[14] = biological target: Dual specificity tyrosine-phosphorylation-regulated kinase 1A (Homo sapiens) (UniProt Q13627); details: Compound concentration 1000.0 nM
[15] = biological target: Mitogen-activated protein kinase 7 (Homo sapiens) (UniProt Q13164); details: Compound concentration 1000.0 nM
[16] = biological target: Receptor-type tyrosine-protein kinase FLT3 (Homo sapiens) (UniProt P36888); details: Compound concentration 1000.0 nM
[17] = biological target: Aurora kinase C (Homo sapiens) (UniProt Q9UQB9); details: Compound concentration 1000.0 nM
[18] = tested on: Tyrosine-protein kinase ABL1 (Homo sapiens), P00519 [F317L]; details: Compound concentration 1000.0 nM
[19] = biological target: Atypical kinase COQ8B, mitochondrial (Homo sapiens) (UniProt Q96D53); details: Compound concentration 1000.0 nM
[20] = biological target: Casein kinase I isoform epsilon (Homo sapiens) (UniProt P49674); details: Compound concentration 1000.0 nM
[21] = biological target: Phosphorylase b kinase gamma catalytic chain, skeletal muscle/heart isoform (Homo sapiens) (UniProt Q16816); details: Compound concentration 1000.0 nM
[22] = biological target: TRAF2 and NCK-interacting protein kinase (Homo sapiens) (UniProt Q9UKE5); details: Compound concentration 1000.0 nM
[23] = biological target: Mitogen-activated protein kinase kinase kinase 12 (Homo sapiens) (UniProt Q12852); details: Compound concentration 1000.0 nM
[24] = tested on: Phosphatidylinositol 4,5-bisphosphate 3-kinase catalytic subunit alpha isoform (Homo sapiens), P42336 [H1047Y]; details: Compound concentration 1000.0 nM
[25] = biological target: Ribosomal protein S6 kinase alpha-2 (Homo sapiens) (UniProt Q15349); details: Compound concentration 1000.0 nM
[26] = biological target: Dual serine/threonine and tyrosine protein kinase (Homo sapiens) (UniProt Q6XUX3); details: Compound concentration 1000.0 nM
[27] = biological target: Mitogen-activated protein kinase 11 (Homo sapiens) (UniProt Q15759); details: Compound concentration 1000.0 nM
[28] = tested on: Receptor-type tyrosine-protein kinase FLT3 (Homo sapiens), P36888 [K663Q]; details: Compound concentration 1000.0 nM
[29] = biological target: Sigma intracellular receptor 2 (Homo sapiens, UniProt Q5BJF2); details: Compound concentration 10.0 uM
[30] = biological target: Cyclin-dependent kinase 18 (Homo sapiens) (UniProt Q07002); details: Compound concentration 1000.0 nM
[31] = biological target: Serine/threonine-protein kinase 3 (Homo sapiens) (UniProt Q13188); details: Compound concentration 1000.0 nM
[32] = biological target: Inhibitor of nuclear factor kappa-B kinase subunit beta (Homo sapiens) (UniProt O14920); details: Compound concentration 1000.0 nM
Histamine H2 receptor = Histamine H2 receptor (Homo sapiens, UniProt P25021); details: Compound concentration 10.0 uM
[33] = biological target: G protein-coupled receptor kinase 3 (Homo sapiens) (UniProt P35626); details: Compound concentration 1000.0 nM
[34] = biological target: Activin receptor type-1 (Homo sapiens) (UniProt Q04771); details: Compound concentration 1000.0 nM
[35] = biological target: RAC-gamma serine/threonine-protein kinase (Homo sapiens) (UniProt Q9Y243); details: Compound concentration 1000.0 nM
[36] = biological target: Ephrin type-A receptor 6 (Homo sapiens) (UniProt Q9UF33); details: Compound concentration 1000.0 nM
Sequence of Ephrin type-A receptor 6 (Homo sapiens) (Q9UF33 whole entry): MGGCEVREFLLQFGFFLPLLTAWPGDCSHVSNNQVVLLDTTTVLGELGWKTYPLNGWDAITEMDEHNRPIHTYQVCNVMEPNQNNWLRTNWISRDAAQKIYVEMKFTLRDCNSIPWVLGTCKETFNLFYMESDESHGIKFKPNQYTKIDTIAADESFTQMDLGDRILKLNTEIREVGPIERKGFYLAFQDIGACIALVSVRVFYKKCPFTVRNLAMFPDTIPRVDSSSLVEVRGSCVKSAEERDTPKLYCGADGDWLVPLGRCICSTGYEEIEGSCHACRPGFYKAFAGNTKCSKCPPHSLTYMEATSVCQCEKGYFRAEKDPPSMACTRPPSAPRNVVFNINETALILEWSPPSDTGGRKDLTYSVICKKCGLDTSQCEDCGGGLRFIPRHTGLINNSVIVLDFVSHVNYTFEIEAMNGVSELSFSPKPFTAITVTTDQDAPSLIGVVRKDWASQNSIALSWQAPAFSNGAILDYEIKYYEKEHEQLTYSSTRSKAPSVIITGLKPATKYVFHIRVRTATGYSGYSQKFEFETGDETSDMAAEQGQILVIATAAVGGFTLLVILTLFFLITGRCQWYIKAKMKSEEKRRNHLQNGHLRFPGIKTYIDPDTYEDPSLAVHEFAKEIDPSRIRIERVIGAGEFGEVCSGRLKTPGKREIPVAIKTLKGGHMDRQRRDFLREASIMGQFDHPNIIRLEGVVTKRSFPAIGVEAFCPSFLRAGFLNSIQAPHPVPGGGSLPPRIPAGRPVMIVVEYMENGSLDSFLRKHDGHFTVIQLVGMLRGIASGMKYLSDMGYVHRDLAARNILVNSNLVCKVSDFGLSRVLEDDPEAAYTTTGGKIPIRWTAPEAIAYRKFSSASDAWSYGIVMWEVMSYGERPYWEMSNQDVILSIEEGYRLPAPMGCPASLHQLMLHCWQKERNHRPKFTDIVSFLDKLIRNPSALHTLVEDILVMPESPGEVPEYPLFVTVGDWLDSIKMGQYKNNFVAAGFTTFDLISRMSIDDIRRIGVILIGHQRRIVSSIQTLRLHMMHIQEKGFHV

Sequence of Dual specificity protein kinase CLK3 (Homo sapiens) (P49761 whole entry, looked up): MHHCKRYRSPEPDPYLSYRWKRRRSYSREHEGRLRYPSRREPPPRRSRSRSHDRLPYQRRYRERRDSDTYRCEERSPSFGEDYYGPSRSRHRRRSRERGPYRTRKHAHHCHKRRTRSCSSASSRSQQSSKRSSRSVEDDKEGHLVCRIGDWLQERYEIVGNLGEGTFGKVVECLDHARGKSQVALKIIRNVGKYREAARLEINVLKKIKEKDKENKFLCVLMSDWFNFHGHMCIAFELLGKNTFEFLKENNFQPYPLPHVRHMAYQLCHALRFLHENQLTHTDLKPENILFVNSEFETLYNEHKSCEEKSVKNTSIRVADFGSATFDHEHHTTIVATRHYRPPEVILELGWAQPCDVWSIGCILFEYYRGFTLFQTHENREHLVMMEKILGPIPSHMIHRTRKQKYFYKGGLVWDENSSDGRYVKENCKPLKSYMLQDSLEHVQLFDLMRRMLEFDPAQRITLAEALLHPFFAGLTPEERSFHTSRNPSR
Sequence of Casein kinase I isoform epsilon (Homo sapiens) (P49674 whole entry, looked up, canonical isoform): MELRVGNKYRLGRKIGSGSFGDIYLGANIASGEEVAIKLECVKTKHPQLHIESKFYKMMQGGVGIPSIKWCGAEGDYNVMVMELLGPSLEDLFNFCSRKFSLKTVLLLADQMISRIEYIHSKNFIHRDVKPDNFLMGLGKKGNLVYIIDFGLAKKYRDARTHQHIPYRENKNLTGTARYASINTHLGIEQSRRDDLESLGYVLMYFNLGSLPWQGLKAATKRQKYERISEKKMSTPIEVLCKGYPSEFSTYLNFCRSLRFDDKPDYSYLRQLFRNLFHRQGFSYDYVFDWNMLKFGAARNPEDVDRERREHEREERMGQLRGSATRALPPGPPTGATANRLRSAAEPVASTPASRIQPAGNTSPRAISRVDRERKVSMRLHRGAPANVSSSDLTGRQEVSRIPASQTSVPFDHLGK
Sequence of Calcium/calmodulin-dependent protein kinase type II subunit delta (Homo sapiens) (Q13557 whole entry): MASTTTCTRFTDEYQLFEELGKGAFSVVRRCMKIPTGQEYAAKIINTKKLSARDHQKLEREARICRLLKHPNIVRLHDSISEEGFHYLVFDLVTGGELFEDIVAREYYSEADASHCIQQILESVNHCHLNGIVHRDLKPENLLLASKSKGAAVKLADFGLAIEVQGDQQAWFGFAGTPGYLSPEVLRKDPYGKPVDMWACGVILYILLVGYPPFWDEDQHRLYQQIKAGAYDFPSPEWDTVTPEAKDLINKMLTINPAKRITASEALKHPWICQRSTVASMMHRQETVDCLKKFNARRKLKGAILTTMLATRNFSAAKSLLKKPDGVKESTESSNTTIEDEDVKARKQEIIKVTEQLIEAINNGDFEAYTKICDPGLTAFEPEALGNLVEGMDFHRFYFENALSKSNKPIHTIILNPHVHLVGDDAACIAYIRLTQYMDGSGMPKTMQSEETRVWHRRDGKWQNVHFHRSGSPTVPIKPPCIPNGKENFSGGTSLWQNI
Sequence of Mitogen-activated protein kinase kinase kinase 12 (Homo sapiens) (Q12852 whole entry, canonical isoform): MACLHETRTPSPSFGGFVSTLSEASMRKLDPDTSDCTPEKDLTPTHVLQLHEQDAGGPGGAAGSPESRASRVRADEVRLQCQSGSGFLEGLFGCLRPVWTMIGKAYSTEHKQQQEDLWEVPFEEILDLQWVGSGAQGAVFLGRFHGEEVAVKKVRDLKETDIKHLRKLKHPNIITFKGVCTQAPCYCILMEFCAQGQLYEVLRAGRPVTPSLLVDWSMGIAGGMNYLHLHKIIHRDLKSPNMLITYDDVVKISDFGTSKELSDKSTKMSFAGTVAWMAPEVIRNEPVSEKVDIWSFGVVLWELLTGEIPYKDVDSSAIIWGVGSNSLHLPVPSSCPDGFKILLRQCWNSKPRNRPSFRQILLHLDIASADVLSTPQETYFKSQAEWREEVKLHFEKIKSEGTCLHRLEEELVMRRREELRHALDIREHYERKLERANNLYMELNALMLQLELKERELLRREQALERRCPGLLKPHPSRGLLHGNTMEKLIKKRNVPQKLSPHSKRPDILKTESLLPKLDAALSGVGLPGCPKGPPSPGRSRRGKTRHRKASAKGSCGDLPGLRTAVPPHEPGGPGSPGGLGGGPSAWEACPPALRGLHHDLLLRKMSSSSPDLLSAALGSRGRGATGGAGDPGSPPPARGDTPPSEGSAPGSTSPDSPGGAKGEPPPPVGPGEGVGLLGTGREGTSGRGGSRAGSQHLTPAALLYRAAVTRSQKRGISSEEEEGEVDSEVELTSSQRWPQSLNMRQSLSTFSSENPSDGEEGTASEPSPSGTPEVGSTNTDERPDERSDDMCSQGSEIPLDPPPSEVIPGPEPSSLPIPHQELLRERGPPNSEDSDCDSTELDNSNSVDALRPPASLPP
Sequence of Serine/threonine-protein kinase 3 (Homo sapiens) (Q13188 whole entry): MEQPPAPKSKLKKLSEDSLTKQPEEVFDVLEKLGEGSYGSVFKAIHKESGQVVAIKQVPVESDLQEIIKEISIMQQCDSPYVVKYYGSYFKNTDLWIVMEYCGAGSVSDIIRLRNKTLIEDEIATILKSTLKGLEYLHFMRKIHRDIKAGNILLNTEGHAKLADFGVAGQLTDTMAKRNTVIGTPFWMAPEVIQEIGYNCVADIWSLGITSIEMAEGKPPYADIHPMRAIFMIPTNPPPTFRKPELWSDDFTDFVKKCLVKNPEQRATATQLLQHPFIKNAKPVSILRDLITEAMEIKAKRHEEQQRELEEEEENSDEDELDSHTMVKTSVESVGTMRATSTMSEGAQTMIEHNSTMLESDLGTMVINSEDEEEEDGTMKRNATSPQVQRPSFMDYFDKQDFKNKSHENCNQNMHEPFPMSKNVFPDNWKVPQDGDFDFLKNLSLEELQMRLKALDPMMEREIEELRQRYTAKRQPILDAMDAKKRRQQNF
Sequence of RAC-gamma serine/threonine-protein kinase (Homo sapiens) (Q9Y243 whole entry): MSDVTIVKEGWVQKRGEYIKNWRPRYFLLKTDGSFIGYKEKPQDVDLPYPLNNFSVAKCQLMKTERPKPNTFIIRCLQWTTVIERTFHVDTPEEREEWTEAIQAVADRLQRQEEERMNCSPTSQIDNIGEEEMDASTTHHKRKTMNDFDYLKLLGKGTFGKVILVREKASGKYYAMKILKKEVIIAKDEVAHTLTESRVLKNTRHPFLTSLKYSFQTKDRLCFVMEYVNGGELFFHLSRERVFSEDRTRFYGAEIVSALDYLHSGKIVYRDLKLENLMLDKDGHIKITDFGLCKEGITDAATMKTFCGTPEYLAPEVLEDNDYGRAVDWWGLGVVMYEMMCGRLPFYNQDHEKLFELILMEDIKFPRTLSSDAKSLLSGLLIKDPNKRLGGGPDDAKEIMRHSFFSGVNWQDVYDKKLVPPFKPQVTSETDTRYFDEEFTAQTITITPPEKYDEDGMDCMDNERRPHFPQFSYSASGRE
Sequence of Phosphorylase b kinase gamma catalytic chain, skeletal muscle/heart isoform (Homo sapiens) (Q16816 whole entry, looked up, canonical isoform): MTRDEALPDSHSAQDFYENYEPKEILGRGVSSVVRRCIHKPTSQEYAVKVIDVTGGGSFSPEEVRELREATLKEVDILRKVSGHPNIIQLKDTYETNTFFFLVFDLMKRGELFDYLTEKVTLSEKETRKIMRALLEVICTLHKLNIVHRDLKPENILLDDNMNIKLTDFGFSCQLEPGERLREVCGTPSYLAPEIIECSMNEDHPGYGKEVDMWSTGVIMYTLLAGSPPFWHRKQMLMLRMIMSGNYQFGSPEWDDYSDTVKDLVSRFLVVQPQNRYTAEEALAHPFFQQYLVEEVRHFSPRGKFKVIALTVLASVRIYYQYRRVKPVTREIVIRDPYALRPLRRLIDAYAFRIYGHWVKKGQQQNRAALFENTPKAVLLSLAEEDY
Sequence of Sigma intracellular receptor 2 (Q5BJF2 whole entry): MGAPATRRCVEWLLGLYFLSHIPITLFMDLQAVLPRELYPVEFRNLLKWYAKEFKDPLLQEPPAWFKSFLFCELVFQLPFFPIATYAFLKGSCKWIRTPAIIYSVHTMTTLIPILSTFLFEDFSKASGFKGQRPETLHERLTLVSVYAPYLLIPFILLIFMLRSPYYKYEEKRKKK

Row | SMILES | residual activity [1] | residual activity [2] | residual activity [3] | residual activity [4] | Ki ([5]; read-out: Ki) | inhibition [6] | residual activity [7] | residual activity [8] | residual activity [9] | residual activity [10] | inhibition [11] | inhibition (D(1A) dopamine receptor) | residual activity [12] | residual activity [13] | residual activity [14] | residual activity [15] | residual activity [16] | residual activity [17] | residual activity [18] | residual activity [19] | also measured
1 | CNCc1ccccc1-c1csc([C@H](C)Nc2nc(C)nc3cc(OC)c(OC)cc23)c1 [BAY-294] | 97% | 100% | 100% | 73% | 0.524 µM | 59.4% | 100% | 75% | 84% | 100% | 75% | 89.2% | 98% | 100% | 80% | 100% | 93% | 94% | 100% | 93% | residual activity [20]: 91%; residual activity [21]: 87%; residual activity [22]: 99%; residual activity [23]: 97%; residual activity [24]: 100%; residual activity [25]: 100%; residual activity [26]: 78%; residual activity [27]: 100%; residual activity [28]: 93%; inhibition [29]: 83.2%; residual activity [30]: 100%; residual activity [31]: 89%; residual activity [32]: 83%; inhibition (Histamine H2 receptor): 101%; residual activity [33]: 91%; residual activity [34]: 100%; residual activity [35]: 95%; residual activity [36]: 100%
2 | CNCc1ccccc1-c1csc([C@@H](C)Nc2nc(C)nc3cc(OC)c(OC)cc23)c1 [BAY-293] | 99% | 100% | 100% | 89% | 0.956 µM | 43.1% | 93% | 78% | 85% | 91% | 66.1% | 82.7% | 88% | 79% | 88% | 97% | 88% | 92% | 100% | 65% | Ki ([5]; read-out: pKi (converted)): 0.944 µM; residual activity [20]: 99%; residual activity [21]: 83%; residual activity [22]: 85%; residual activity [23]: 100%; residual activity [24]: 100%; residual activity [25]: 100%; residual activity [26]: 83%; residual activity [27]: 86%; residual activity [28]: 77%; inhibition [29]: 94.8%; residual activity [30]: 100%; residual activity [31]: 85%; residual activity [32]: 94%; inhibition (Histamine H2 receptor): 100%; residual activity [33]: 98%; residual activity [34]: 100%; residual activity [35]: 92%; residual activity [36]: 96%

From ChEMBL document CHEMBL4507273 (2021)
